Key:
HepG2 [1] = assay: Inhibition of proliferation of human HepG2 cells at 44.2 uM after 72 hrs by XTT assay; assay type: functional; settings: HepG2, 72 h
DU-145 [2] = assay: Inhibition of proliferation of human DU145 cells after 72 hrs by XTT assay; assay type: functional, cell-based; settings: DU-145, 72 h
DU-145 [3] = assay: Inhibition of proliferation of human DU145 cells at 102 uM after 72 hrs by XTT assay; assay type: functional; settings: DU-145, 72 h
HepG2 [4] = assay: Inhibition of proliferation of human HepG2 cells after 72 hrs by XTT assay; assay type: functional, cell-based; settings: HepG2, 72 h
HepG2 [5] = assay: Inhibition of proliferation of human HepG2 cells at 72.5 uM after 72 hrs by XTT assay; assay type: functional; settings: HepG2, 72 h
DU-145 [6] = assay: Inhibition of proliferation of human DU145 cells at 44.2 uM after 72 hrs by XTT assay; assay type: functional; settings: DU-145, 72 h
HepG2 [7] = assay: Inhibition of proliferation of human HepG2 cells at 36.2 uM after 72 hrs by XTT assay; assay type: functional; settings: HepG2, 72 h
DU-145 [8] = assay: Inhibition of proliferation of human DU145 cells at 36.2 uM after 72 hrs by XTT assay; assay type: functional; settings: DU-145, 72 h
HepG2 [9] = assay: Inhibition of proliferation of human HepG2 cells at 51 uM after 72 hrs by XTT assay; assay type: functional; settings: HepG2, 72 h
DU-145 [10] = assay: Inhibition of proliferation of human DU145 cells at 38.5 uM after 72 hrs by XTT assay; assay type: functional; settings: DU-145, 72 h
DU-145 [11] = assay: Inhibition of proliferation of human DU145 cells at 35.2 uM after 72 hrs by XTT assay; assay type: functional; settings: DU-145, 72 h
HepG2 [12] = assay: Inhibition of proliferation of human HepG2 cells at 35.2 uM after 72 hrs by XTT assay; assay type: functional; settings: HepG2, 72 h
DU-145 [13] = assay: Inhibition of proliferation of human DU145 cells at 34.1 uM after 72 hrs by XTT assay; assay type: functional; settings: DU-145, 72 h
HepG2 [14] = assay: Inhibition of proliferation of human HepG2 cells at 34.1 uM after 72 hrs by XTT assay; assay type: functional; settings: HepG2, 72 h

IC50 (DU-145 [2]) [µM]	IC50 (HepG2 [4]) [µM]	SMILES	further results
8.98	8.98	Cc1ccc(S(=O)(=O)NNC(N)=S)cc1	inhibition at 44.2 µM (HepG2 [1]): 100%; inhibition at 102 µM (DU-145 [3]): 100%; inhibition at 72.5 µM (HepG2 [5]): 100%
9.84	8.77	CC(=O)c1sc(NNS(=O)(=O)c2ccc(C)cc2)nc1C	inhibition at 38.5 µM (DU-145 [10]): 100%
7.63	7.36	CC(=O)N(c1nc(C)cs1)N(C(C)=O)S(=O)(=O)c1ccc(C)cc1	inhibition at 34.1 µM (DU-145 [13]): 100%; inhibition at 34.1 µM (HepG2 [14]): 100%
> 62.3	> 62.3	CC(=O)N(c1nc(CCl)cs1)N(C(C)=O)S(=O)(=O)c1ccc(C)cc1	
> 58.3	> 58.3	CC(=O)N(c1nc(-c2ccccc2)cs1)N(C(C)=O)S(=O)(=O)c1ccc(C)cc1	
> 57	> 57	CCOC(=O)c1sc(N(C(C)=O)N(C(C)=O)S(=O)(=O)c2ccc(C)cc2)nc1C	
46.4	11	CCOC(=O)Cc1csc(N(C(C)=O)N(C(C)=O)S(=O)(=O)c2ccc(C)cc2)n1	
< 2.94	< 2.94	COc1cccc2c1C(=O)c1c(O)c3c(c(O)c1C2=O)C[C@@](O)(C(=O)CO)C[C@@H]3O[C@H]1C[C@H](N)[C@H](O)[C@H](C)O1 [DOXORUBICIN]	

The remaining lines, values behind:

SMILES	IC50 (DU-145 [2]) [µM]	IC50 (HepG2 [4]) [µM]	further results
Cc1ccc(S(=O)(=O)NNc2nc(C)cs2)cc1	6.96	< 5.65	inhibition at 44.2 µM (DU-145 [6]): 100%; inhibition at 36.2 µM (HepG2 [7]): 100%
O=C(NNc1nc(CCl)cs1)c1csc(-c2ccccc2)n1	49.2	11.2	
Cc1ccc(S(=O)(=O)NNc2nc(-c3ccccc3)cs2)cc1	9.07	9.16	inhibition at 36.2 µM (DU-145 [8]): 100%; inhibition at 51 µM (HepG2 [9]): 100%
CCOC(=O)c1sc(NNS(=O)(=O)c2ccc(C)cc2)nc1C	4.68	< 4.51	inhibition at 35.2 µM (DU-145 [11]): 100%; inhibition at 35.2 µM (HepG2 [12]): 100%
CC(=O)c1sc(N(C(C)=O)N(C(C)=O)S(=O)(=O)c2ccc(C)cc2)nc1C	53.5	57.4	
CCOC(=O)Cc1csc(N(NC(=O)c2csc(-c3ccccc3)n2)C(C)=O)n1	> 58.1	> 58.1	

Reference: ChEMBL document CHEMBL1275295, “Synthesis of some p-toluenesulfonyl-hydrazinothiazoles and hydrazino-bis-thiazoles and their anticancer activity” (Eur J Med Chem, 2010)
